Assay results taken from patent US7772434B2, “Crystalline form of a β2 adrenergic receptor agonist” (Theravance, Inc., priority 2003, dated 2010).
Counter-ions that a name gives are not always drawn.

What was measured:
[1] = Hygroscopicity / deliquescence on exposure to the atmosphere at high relative humidity; type: physicochemical; conditions: exposed to the atmosphere for prolonged periods at high relative humidity
[2] = Solid state stability testing (storage at elevated temperature and humidity); type: physicochemical
Procedure: Samples (250 mg each) of the monoHCl salt of Examples 9 and 10 were stored at 40° C. and 75% relative humidity in open containers and in closed containers. Additional samples (100 mg each) of the monoHCl salt were stored at 50° C. in closed containers. […] Water percentage of the samples stored at 40° C. was less than 0.25% after two and four weeks of storage.
The differential scanning calorimetry trace of Example 14, shown in FIG. 2 was obtained with a TA instruments model DSC2010. Samples were placed in sealed aluminum pans for analysis with an empty pan serving as the reference. Samples were equilibrated at 30° C. and heated at 5° C. per minute to a temperature of 300° C. The instrument was calibrated with an indium standard.
Thermogravimetric analysis was conducted using a TA instruments model Q50. Samples were weighed in aluminum pans and heated from 50° C. to 300° C. at a rate of 10° C./min.
HPLC analysis was conducted using a MAC MOD Ace-5, C18, 25 cm×4.6 mm, 5 μm column, equilibrated at 30° C. The mobile phases used were: A: 0.1% TFA in 98:2 water:acetonitrile; and B: 0.1% TFA in 10:90 water:acetonitrile. Detection was by UV absorbance at 244 nm. The initial condition was 6% phase B. A flow rate of 1.0 mL/min and gradients of 6 to 30% B over 25 min, 30% to 60% B in 10 min and 60% to 100% B in 2 min were utilized. The monoHCl salt of compound 1 gave a retention time of 19.1 min.
Water content was determined by coulometric Karl Fischer titration using a Brinkman Metrohm Karl Fischer Model 831 coulometer.

[3] = all storage conditions: 40° C. and 75% relative humidity in open and closed containers, 50° C. in closed containers, after four weeks

hygroscopicity / deliquescence [1]: neither hygroscopic nor deliquescent | analysis by DSC and TGA [2, 3]: no detectable differneces | change in the appearance of the material [2, 3]: no observable change | chemical degradation, analysis by HPLC [2, 3]: no detectable chemical degradation | thermal stability ([2]; at elevated temperatures): thermally stable | analysis by DSC ([2]; four weeks at 40° C. and 75% humidity in open and closed containers and at 50° C. in a closed container): no detectable difference | chemical degradation, analysis by HPLC ([2]; four weeks at 40° C. and 75% humidity in open and closed containers and at 50° C. in a closed container, summary statement): no appreciable chemical degradation | Water percentage of the samples ([2]; samples stored at 40° C. (75% relative humidity), after two and four weeks of storage, Karl Fischer): less than 0.25%
Compound: O=CNc1cc([C@@H](O)CNCCc2ccc(NC[C@H](O)c3ccccc3)cc2)ccc1O [monohydrochloride salt of compound 1, N-{2-[4-((R)-2-hydroxy-2-phenylethylamino)phenyl]ethyl}-(R)-2-hydroxy-2-(3-formamido-4-hydroxyphenyl)ethylamine monohydrochloride]
